Five molecules from article PMC3895464 (Bioorganic & medicinal chemistry, 2013) can be followed below.

The test system of data set [1] is HT29, HCA-7 and Apc10.1 cells. Briefly: Cell growth assays, IC50 ranges over the three cell lines. The settings on record: read-out: IC50 values (tumor cell survival). The data set is classed as cell-based.
Data set [2] concerns COX-2 and 5-LOX expression in HT29 cells. Briefly: COX-2 and 5-LOX expression in HT29 cells. The conditions noted are these: Figure 2B. The class given is cell-based, human.
Data set [3] relates to pre-neoplastic Apc10.1 cells. The data set can be described thus: MTT assay on pre-neoplastic Apc10.1 cells. The data set is classed as cell-based. The settings on record: Apc10.1, 24 h. A general note: Tetrazolium assays rely on reduction of a dye to a coloured formazan, in cell work by metabolically active cells.
A further data set concerns HCA-7 cells. The data set can be described thus: Cell proliferation assay. The class given is cell-based. The settings on record: Homo sapiens, HCA-7, read-out: IC50 cell proliferation, HCA-7, Has2 −.
The next data set has as its system HT29 cells. Briefly: Cell proliferation assay. The data set is classed as cell-based. The settings on record: Homo sapiens, HT-29, read-out: IC50 cell proliferation, HT29, Has2 −.
The next data set relates to Apc10.1 cells. Briefly: Cell proliferation assay. The class given is cell-based, mice. The conditions noted are these: Mus musculus, read-out: IC50 cell proliferation, Apc10.1, Has2 −.

As for `CC(C)(C)C1=CC(=NNC(=O)c2ccccc2)C=C(C(C)(C)C)C1=O` [BQBH, N’- (3,5-di-tert-butyl-4-oxocyclohexa-2,5-dienylidene) benzohydrazide], the IC50 in data set [1] is 12 to 20 µM. Moreover, the “COX-2 and 5-LOX levels” value in data set [2] is “substantial inhibition”.

On to `CC(C)(C)C1=CC(=NNC(=O)c2ccncc2)C=C(C(C)(C)C)C1=O` [BQIH, N’- (3,5-di-tert-butyl-4-oxocyclohexa-2,5-dienylidene) isonicotinohydrazide], for which the IC50 in data set [1] was in the range of 12 to 20 µM. Moreover, the “COX-2 and 5-LOX levels” value in data set [2] is “substantial inhibition”.

With `CC(C)(C)C1=CC(=NNC(=O)c2cccnc2)C=C(C(C)(C)C)C1=O` [BQNH, N’- (3,5-di-tert-butyl-4-oxocyclohexa-2,5-dienylidene) nicotinohydrazide], in data set [3], the “cytotoxic activity (MTT)” value is given as “reasonable cytotoxic activity”. The IC50 in data set [1] is 6.5 to 11 µM. Also, the “COX-2 and 5-LOX levels” value in data set [2] is given as “substantial inhibition”.

With `Cc1ccc(-c2cc(C(F)(F)F)nn2-c2ccc(S(N)(=O)=O)cc2)cc1` [Celecoxib, reference compound], in data set [1], the IC50 was in the range of 2 to 4.2 µM.

Turning to `CC1(C)Cc2c(-c3ccccc3)c(-c3ccc(Cl)cc3)c(CC(=O)O)n2C1` [Licofelone, [6-(4-chlorophenyl)-2,2-dimethyl-7-phenyl-2,3-dihydro-1H-pyrrolizin-5-yl]acetic acid], the IC50 was 48 ± 5.2 µM in the data set on HCA-7 cells, 75 ± 8.3 µM in the data set on HT29 cells, 45 ± 7.2 µM in the data set on Apc10.1 cells and 45 to 75 µM in data set [1]. Besides, in data set [2], the “COX-2 and 5-LOX levels” value is on record as “substantial inhibition”.
